# Source: patent publication US3947584A, “Novel indolyl alkyl amines, method of producing same, and their use as anorectic agents” (Siegfried Aktiengesellschaft, priority 1972, dated 1976)
# Columns and labels:
# [1] = Toxicity, single oral application in mouse (LD 50); settings: in vivo, dissolved in equivalent quantities of HCl
# Text: (§1) The first column gives the respective two alkyl groups which are fixed in the α-position to the otherwise unsubstituted tryptamines.
# Rat = experiment: Anorexia, single oral application in rat (ED 50); assay type: in vivo; settings: dissolved in equivalent quantities of HCl
# Text: as §1
# Mouse / Rat = experiment: Therapeutic index (LD 50 mouse, oral / ED 50 rat, oral); assay type: in vivo
# Text: as §1
# Solubility = settings: in usual alcohols and in water; hydrochloride
SMILES,LD50 [1],ED50 (Rat),Therapeutic Index (LD 50 / ED 50) (Mouse / Rat),solubility (Solubility)
"CCC(N)(CC)Cc1c[nH]c2ccccc12 [Ethyl, ethyl, 3-(2'-ethyl-2'-aminobutyl)-indole]",620 mg/kg,> 50 mg/kg,< 12,
"CCC(C)(N)Cc1c[nH]c2ccccc12 (stereo not shown) [Example 3, 3-(2'-amino-2'-methylbutyl)-indole]",,,,soluble very satisfactorily in usual alcohols and in water
"CCC(C)(N)Cc1c[nH]c2ccccc12 (stereo not shown) [Methyl, ethyl, 3-(2'-amino-2'-methylbutyl)-indole]",700 mg/kg,15 mg/kg,47,
"CC(C)(N)Cc1c[nH]c2ccccc12 [Methyl, methyl, α,α-dimethyl tryptamine, reference compound]",320 mg/kg,36 mg/kg,9,
"CCCC(C)(N)Cc1c[nH]c2ccccc12 (stereo not shown) [Methyl, propyl, 3-(2'-methyl-2'-aminopentyl)-indole]",530 mg/kg,~50 mg/kg,approx. 11,
"CCCC(N)(CCC)Cc1c[nH]c2ccccc12 [Propyl, propyl, 3-(2'-propyl-2'-aminopentyl)-indole]",900 mg/kg,> 50 mg/kg,< 18,
